Structures are written as SMILES.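 A five-concentration, 48-hour dose response in 96-well plates underlies each endpoint, interpolated linearly between surrounding concentrations. TGI marks complete inhibition of growth.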 Some results are limits rather than exact numbers.

The test system of one assay is RPMI-8226 leukemia. Put plainly: NCI anticancer screen, dose series, 48 h.
Compound `C=C(C)C1CCC(C(=O)O)CC1` (stereo not drawn) had a TGI greater than 100 µM.
The same measure, in the same setting: to `O=c1[nH]c2cc(C(F)(F)F)ccc2nc1C(F)(F)F` belongs greater than 100 µM; to `Cc1ccc(C(=O)N/N=C(\N=Nc2cccc([N+](=O)[O-])c2)c2ccc(N(CCC#N)CCC#N)cc2C)cc1`, greater than 100 µM; to `O=C1/C(=C\c2ccc([N+](=O)[O-])cc2)N(S(=O)(=O)c2ccccc2)c2ncccc21`, 41 µM.
On the same count and under the same terms, with `O=C(O)c1c2c(cc3c1CC(Cc1ccccc1)C3=O)CCC2` (stereo not drawn) the figure was greater than 100 µM; with `OC(CC1CCCCN1)c1ccc2c(c1)oc1ccccc12` (stereo not drawn), greater than 100 µM; with `C=CC[C@]1(/C=N/O)CN(S(=O)(=O)CC[Si](C)(C)C)C[C@H]2CC=CC[C@H]21`, 31.8 µM.
`Nc1cc([N+](=O)[O-])ccc1C(=O)N1CCC[C@H]1CO` registered a TGI greater than 100 µM.
`O=C1OC(CCCN2CCCCC2)(c2ccccc2)CC12CCCC2` (stereo not drawn) gave a TGI greater than 100 µM.
Turning to `NC(=Nc1ccccc1Cl)c1ccccc1N`, the TGI was greater than 100 µM.
`O=C1NC(=S)N/C1=C\c1cccs1` displayed a TGI greater than 100 µM.
Regarding `CCN1C[C@]2(C)CC[C@H](O)C34C1C(C[C@@H]32)[C@@]1(O)CC[C@H]2C[C@@H]4[C@@H]1[C@H]2O`, the TGI is greater than 100 µM.
Compound `CSc1c(C(=O)Nc2ccccc2)c(N)n(N)c(=O)c1C#N` had a TGI greater than 100 µM.
With `COC(=O)C1=C(OC(=O)/C(=C/c2ccccc2)c2ccc(Cl)cc2Cl)C(C(=O)OC)[C@@]2(O)[C@@H](C(=O)OC)[C@H](C)C[C@@H]1[C@@H]2C(=O)OC` (stereo partly drawn), the TGI was greater than 100 µM.
In turn, `C[C@@H](C(=O)O)N1C(c2ccco2)=C(/C(C=O)=C\c2ccco2)C(=O)/C1=C\c1ccco1` showed a TGI greater than 100 µM.
`O=C(/C=C/c1ccc(O)c(O)c1)OCC(OC(=O)/C=C/c1ccc(O)c(O)c1)C(=O)O` (stereo not drawn) yielded a TGI greater than 100 µM.
`Cc1cc(C)nc(NS(=O)(=O)c2ccc(Nc3c4ccccc4nc4ccc(C(=O)Nc5ccc(S(N)(=O)=O)cc5)cc34)cc2)n1` showed a TGI greater than 100 µM.
Regarding `CCOC(=O)/C=C(\C(=O)OCC)n1cc(C)c(=O)n(Cc2cn(CCCCOC(C)=O)nn2)c1=O`, the TGI turned out to be 21.7 µM.
With `O=C1C2=Cc3ccccc3OC2(O)Oc2cc3ccccc3cc21` (stereo not drawn), the TGI is greater than 100 µM.
Same read-out and setting: to `CC1(c2cccc(C3CC4(CCC3=O)OCCCCO4)c2)OCCO1` (stereo not drawn) belongs greater than 100 µM.

The test system of a further assay is RXF 393 renal. In words: NCI anticancer screen, dose series, 48 h.
Take `CC1(C)OCN(c2ccc(N3CCOCC3)cc2)Cn2c1nc1ccccc12`: the TGI was greater than 100 µM.
`Cc1cc(C)c2c(=O)cc(-c3cccc4ccccc34)[nH]c2n1` yielded a TGI greater than 37.1 µM.
`COc1ccc2nc(N/N=C/c3sccc3C)cc(C)c2c1`: the TGI amounted to 62.6 µM.
`C=C(C)C1CCC(C(=O)O)CC1` (stereo not drawn) returned a TGI greater than 100 µM.
On to `O=c1[nH]c2cc(C(F)(F)F)ccc2nc1C(F)(F)F`, for which the TGI came out at 58.2 µM.
`Cc1ccc(C(=O)N/N=C(\N=Nc2cccc([N+](=O)[O-])c2)c2ccc(N(CCC#N)CCC#N)cc2C)cc1` showed a TGI of 60.7 µM.
`O=C1/C(=C\c2ccc([N+](=O)[O-])cc2)N(S(=O)(=O)c2ccccc2)c2ncccc21` yielded a TGI of 37 µM.
The compound `O=C(O)c1c2c(cc3c1CC(Cc1ccccc1)C3=O)CCC2` (stereo not drawn) displayed a TGI greater than 100 µM.
Compound `OC(CC1CCCCN1)c1ccc2c(c1)oc1ccccc12` (stereo not drawn) showed a TGI greater than 100 µM.
`C=CC[C@]1(/C=N/O)CN(S(=O)(=O)CC[Si](C)(C)C)C[C@H]2CC=CC[C@H]21` displayed a TGI of 29.6 µM.
Compound `Nc1cc([N+](=O)[O-])ccc1C(=O)N1CCC[C@H]1CO` yielded a TGI greater than 100 µM.
`O=C1OC(CCCN2CCCCC2)(c2ccccc2)CC12CCCC2` (stereo not drawn) showed a TGI greater than 100 µM.
Consider `NC(=Nc1ccccc1Cl)c1ccccc1N`, for which the TGI is greater than 100 µM.
`O=C1NC(=S)N/C1=C\c1cccs1` came in with a TGI greater than 100 µM.
In turn, `CCN1C[C@]2(C)CC[C@H](O)C34C1C(C[C@@H]32)[C@@]1(O)CC[C@H]2C[C@@H]4[C@@H]1[C@H]2O` had a TGI greater than 100 µM.
`CSc1c(C(=O)Nc2ccccc2)c(N)n(N)c(=O)c1C#N` yielded a TGI greater than 100 µM.
For `COC(=O)C1=C(OC(=O)/C(=C/c2ccccc2)c2ccc(Cl)cc2Cl)C(C(=O)OC)[C@@]2(O)[C@@H](C(=O)OC)[C@H](C)C[C@@H]1[C@@H]2C(=O)OC` (stereo partly drawn), the TGI is greater than 100 µM.
Regarding `C[C@@H](C(=O)O)N1C(c2ccco2)=C(/C(C=O)=C\c2ccco2)C(=O)/C1=C\c1ccco1`, the TGI was greater than 100 µM.
For `O=C(/C=C/c1ccc(O)c(O)c1)OCC(OC(=O)/C=C/c1ccc(O)c(O)c1)C(=O)O` (stereo not drawn), the TGI was greater than 100 µM.
Turning to `Cc1cc(C)nc(NS(=O)(=O)c2ccc(Nc3c4ccccc4nc4ccc(C(=O)Nc5ccc(S(N)(=O)=O)cc5)cc34)cc2)n1`, the TGI is greater than 100 µM.
On to `CCOC(=O)/C=C(\C(=O)OCC)n1cc(C)c(=O)n(Cc2cn(CCCCOC(C)=O)nn2)c1=O`, for which the TGI stood at 7.5 µM.
Regarding `O=C1C2=Cc3ccccc3OC2(O)Oc2cc3ccccc3cc21` (stereo not drawn), the TGI was greater than 100 µM.

In another assay the test system is SK-MEL-28 melanoma. In words: NCI anticancer screen, dose series, 48 h.
Regarding `CC1(C)OCN(c2ccc(N3CCOCC3)cc2)Cn2c1nc1ccccc12`, the TGI is greater than 100 µM.
With `Cc1cc(C)c2c(=O)cc(-c3cccc4ccccc34)[nH]c2n1`, the TGI is greater than 100 µM.
In the case of `COc1ccc2nc(N/N=C/c3sccc3C)cc(C)c2c1`, the TGI was 50.5 µM.
As for `C=C(C)C1CCC(C(=O)O)CC1` (stereo not drawn), the TGI is greater than 100 µM.
On the same count and under the same terms, with `O=c1[nH]c2cc(C(F)(F)F)ccc2nc1C(F)(F)F` the figure was greater than 100 µM.
On the same count and under the same terms, to `Cc1ccc(C(=O)N/N=C(\N=Nc2cccc([N+](=O)[O-])c2)c2ccc(N(CCC#N)CCC#N)cc2C)cc1` belongs greater than 86.3 µM; to `O=C1/C(=C\c2ccc([N+](=O)[O-])cc2)N(S(=O)(=O)c2ccccc2)c2ncccc21`, 41.8 µM; to `O=C(O)c1c2c(cc3c1CC(Cc1ccccc1)C3=O)CCC2` (stereo not drawn), greater than 100 µM.
`OC(CC1CCCCN1)c1ccc2c(c1)oc1ccccc12` (stereo not drawn) registered a TGI greater than 100 µM.
Regarding `C=CC[C@]1(/C=N/O)CN(S(=O)(=O)CC[Si](C)(C)C)C[C@H]2CC=CC[C@H]21`, the TGI is 54.7 µM.
Regarding `Nc1cc([N+](=O)[O-])ccc1C(=O)N1CCC[C@H]1CO`, the TGI was greater than 100 µM.
The compound `O=C1OC(CCCN2CCCCC2)(c2ccccc2)CC12CCCC2` (stereo not drawn) displayed a TGI of 57 µM.
Same read-out and setting: to `NC(=Nc1ccccc1Cl)c1ccccc1N` belongs greater than 100 µM; to `O=C1NC(=S)N/C1=C\c1cccs1`, greater than 100 µM; to `CCN1C[C@]2(C)CC[C@H](O)C34C1C(C[C@@H]32)[C@@]1(O)CC[C@H]2C[C@@H]4[C@@H]1[C@H]2O`, greater than 100 µM.
`CSc1c(C(=O)Nc2ccccc2)c(N)n(N)c(=O)c1C#N`: the TGI is greater than 100 µM.
The same measure, in the same setting: with `COC(=O)C1=C(OC(=O)/C(=C/c2ccccc2)c2ccc(Cl)cc2Cl)C(C(=O)OC)[C@@]2(O)[C@@H](C(=O)OC)[C@H](C)C[C@@H]1[C@@H]2C(=O)OC` (stereo partly drawn) the figure was greater than 100 µM; with `C[C@@H](C(=O)O)N1C(c2ccco2)=C(/C(C=O)=C\c2ccco2)C(=O)/C1=C\c1ccco1`, greater than 100 µM.
In turn, `O=C(/C=C/c1ccc(O)c(O)c1)OCC(OC(=O)/C=C/c1ccc(O)c(O)c1)C(=O)O` (stereo not drawn) had a TGI greater than 100 µM.
Take `Cc1cc(C)nc(NS(=O)(=O)c2ccc(Nc3c4ccccc4nc4ccc(C(=O)Nc5ccc(S(N)(=O)=O)cc5)cc34)cc2)n1`: the TGI was greater than 100 µM.
`CCOC(=O)/C=C(\C(=O)OCC)n1cc(C)c(=O)n(Cc2cn(CCCCOC(C)=O)nn2)c1=O` gave a TGI of 31.7 µM.
In turn, `O=C1C2=Cc3ccccc3OC2(O)Oc2cc3ccccc3cc21` (stereo not drawn) showed a TGI greater than 100 µM.
Compound `CC1(c2cccc(C3CC4(CCC3=O)OCCCCO4)c2)OCCO1` (stereo not drawn) returned a TGI greater than 100 µM.

In a further assay the test system is SNB-78 CNS. In words: NCI anticancer screen, dose series, 48 h.
`CC1(C)OCN(c2ccc(N3CCOCC3)cc2)Cn2c1nc1ccccc12` came in with a TGI greater than 100 µM.
`CCN1C[C@]2(C)CC[C@H](O)C34C1C(C[C@@H]32)[C@@]1(O)CC[C@H]2C[C@@H]4[C@@H]1[C@H]2O` came in with a TGI greater than 100 µM.
Consider `CC1(c2cccc(C3CC4(CCC3=O)OCCCCO4)c2)OCCO1` (stereo not drawn), for which the TGI was greater than 100 µM.

Values taken from PubChem BioAssay (NCI).
